Measured values taken from article PMC11239005, “Preclinical studies of RA475, a guanidine-substituted spirocyclic candidate RPN13/ADRM1 inhibitor for treatment of ovarian cancer” (PLOS ONE, 2024).
Like-named read-outs stand apart in the source and are kept apart here.

Experiments:
[1] = system: cancer lines in S1B Table; test: MTT cytotoxicity, summary over cell line panel; assay type: cell-based; settings: for IC50: 72 h, read-out: mean IC50 across all cancer lines in S1B Table
Protocol: (§1) All cell lines were obtained from the American Type Culture Collection (ATCC) and cultured in the specified medium supplemented with 10% fetal bovine serum, 100 IU/mL penicillin, and 100 μg/mL streptomycin at 37°C in a humidified 5% CO2/95% air incubator. Synthesis of new compounds is described in S1 File, and >95% purity of RA475, Up284 and its analogs were confirmed by NMR and MS. To assess drug cytotoxicity, cells were seeded at 2,500 cells/well (10,000 cells/well for MM lines) in 100 μL medium in 96-well plate as triplicates and after 24 h treated with compounds for a further 72 h. To assess cytotoxicity, the cells were incubated for 2 h at 37°C according to the manufacturer’s protocol with the Thiazolyl Blue Tetrazolium Bromide (20 μL/well of 5 mg/mL stock solution in water) (Sigma, M5655) and A570 measured using a Benchmark Plus microplate spectrophotometer (BIO-RAD). IC50 was estimated using Graphpad Prism 7 software.
(§2) Modifications of Up284 were sought to improve its drug-like properties without significant compromise of its activity in vivo, and several new compounds were synthesized (S1 File). Based on our prior studies of its pharmacophore, the central ring nitrogen was the most logical for addition of charged moieties, including RA475 and RA484. We also examined a change to either 3,4 spiro rings (RA477, RA479), or addition of 3-Fluoro substitutions (RA482) (S1 File). Our focus is developing iRPN13 to treat ovarian cancer resistant to standard of care drug regimens.
We elected to focus on RA475 and expanded the analysis in a larger panel of cell lines including those from common cancer types and normal tissues. […] This panel included another pair of cell lines isolated from another ovarian cancer patient with drug-resistant disease (PEO4) and pre-treatment (PEO1), and both were similarly sensitive to RA475.

HCC1395 = test: MTT cytotoxicity assay, HCC1395; assay type: cell-based; settings: Homo sapiens, HCC1395, 72 h
Protocol: as §1

PEA2 = test: MTT cytotoxicity assay, PEA2; assay type: cell-based; settings: Homo sapiens
Protocol: as §1, §2

hERG potassium channel = hERG potassium channel (Homo sapiens, UniProt Q12809); test: hERG Thallium Flux FLIPR-Based Assay
Protocol: Supplementary file pone.0305710.s008.tif: S8 Fig hERG inhibition in vitro. […] Concentration range of 0.023–50 μM (8 points, 3-fold serial dilutions) B) Dose-response curve for RA475. Concentration range of 0.045–100 μM (8 points, 3-fold serial dilutions). C) Dose-response curve for Up284. Concentration range of 0.045–100 μM (8 points, 3-fold serial dilutions). (TIF)

PEA1 cells = test: MTT cytotoxicity assay, PEA1; assay type: cell-based, human; settings: for IC50: Homo sapiens, PEA1, 72 h
Protocol: as §1, §2
A wash-out experiment was performed to assess reversibility of the toxicity. PEA1 cells were treated with RA475 for 1 h before the medium was replaced with fresh culture medium, and the cells were then allowed to grow for another 71 hours (PEA1-WO). In parallel, PEA1 cells were incubated with RA475 continuously for 72 h. […] Possible reasons include slow uptake of RA475, reversible binding and neutralization by antioxidants in the medium.
To study the effect of RA475 in combination with approved therapeutics (DNA damaging agents or radiation) an MTT assay was performed using various concentrations of both drugs. Briefly PEA1 and OVCAR3 cells were each treated with drug combination (RA475 plus cisplatin) for 72 h in a checker board analysis and cell viability was measured using MTT assay. The data were analyzed and plotted using the Synergy Finder web application.

[2] = system: high molecular weight polyubiquitinated proteins in OVCAR3 cells; test: Anti-ubiquitin immunoblot, OVCAR3; assay type: cell-based, human; settings: Up284 0.5 μM, bortezomib 0.25 μM, ixazomib 0.25 μM, RA475 0.5 or 1 μM
Text: Cell lysate prepared in MPER (Pierce) from each sample was normalized by total protein concentration using the bicinchoninic acid assay and bovine serum albumin standards. Normalized samples were subjected to SDS-PAGE, transferred to PVDF membranes and analyzed by Western blot using antibodies specific to ubiquitin (P4D1, sc-8017, Santa Cruz), PARP (#9542, […]), actin (#66009, Protein Tech Group), Tubulin(#66031, Protein Tech Group), ADRM1/RPN13 (D9Z1U, #12019, Cell Signaling), USP14 (Cell Signal, # 8159), Annexin V (#559763, BD Pharmingen), and for secondary antibodies we utilized either horseradish peroxidase (HRP)-linked anti-mouse IgG or anti-rabbit IgG (GE Healthcare UK Ltd), HRP-linked streptavidin (N100, Thermo Fisher) at the recommended dilution (1:5000).
Accumulation of high molecular weight polyubiquitinated proteins (polyUb) is a classical phenomenon of proteasome function inhibition due to the stabilization of its substrate.
Fig 3 Impact of RA475 on proteasome function. […] Actin was used as loading control. […] C) 4T1 and HCC1806 cells stably expressing 4UbFL were treated with compounds at indicated doses for 4 h and imaged by IVIS200 after the addition of luciferin substrate (50 μL, 7mg/mL in PBS). D) Sub-confluent cultures of ES2 cells stably expressing 4UbFL were seeded at 10,000 cells/well in 96-well microtiter plates. At 18 h post transfection, cells were treated with compounds or vehicle (DMSO) at the doses indicated. After a 4 h incubation, the cells were lysed and the luciferase activity in each cell lysate was determined with a luciferase assay kit (Promega) according to the manufacturer’s instructions. Bioluminescence was measured by using a luminometer (Glomax Multidetection system, Promega) E) A patch was shaved of hair on one leg of CD-1 mice, and 10 μg 4UbFL plasmid in 20 μL of PBS was injected into the quadriceps femoralis muscle followed immediately by injection of the 2 Needle Array to 5 mm depth encompassing the injection site and square wave electroporation (ElectroSquarePorator 833, BTX-2 Needle array 5mm gap, Harvard apparatus) delivered as eight pulses at 106V for 20 ms with 200 ms intervals. One day post electroporation, mice were anesthetized with isoflurane, injected IP with luciferin (0.3 mg in 100 μL water) and optical imaging was performed to determine basal level luciferase expression. Images were acquired for 10 min with a Xenogen IVIS 200 (Caliper, Hopkinton, MA). Equally sized areas were analyzed using Living Image 2.20 software. Mice were imaged weekly during treatment. […]

PACS = test: MTT cytotoxicity assay, PACS; assay type: cell-based; settings: 72 h
Protocol: as §1

Sequence of hERG potassium channel (Q12809 whole entry): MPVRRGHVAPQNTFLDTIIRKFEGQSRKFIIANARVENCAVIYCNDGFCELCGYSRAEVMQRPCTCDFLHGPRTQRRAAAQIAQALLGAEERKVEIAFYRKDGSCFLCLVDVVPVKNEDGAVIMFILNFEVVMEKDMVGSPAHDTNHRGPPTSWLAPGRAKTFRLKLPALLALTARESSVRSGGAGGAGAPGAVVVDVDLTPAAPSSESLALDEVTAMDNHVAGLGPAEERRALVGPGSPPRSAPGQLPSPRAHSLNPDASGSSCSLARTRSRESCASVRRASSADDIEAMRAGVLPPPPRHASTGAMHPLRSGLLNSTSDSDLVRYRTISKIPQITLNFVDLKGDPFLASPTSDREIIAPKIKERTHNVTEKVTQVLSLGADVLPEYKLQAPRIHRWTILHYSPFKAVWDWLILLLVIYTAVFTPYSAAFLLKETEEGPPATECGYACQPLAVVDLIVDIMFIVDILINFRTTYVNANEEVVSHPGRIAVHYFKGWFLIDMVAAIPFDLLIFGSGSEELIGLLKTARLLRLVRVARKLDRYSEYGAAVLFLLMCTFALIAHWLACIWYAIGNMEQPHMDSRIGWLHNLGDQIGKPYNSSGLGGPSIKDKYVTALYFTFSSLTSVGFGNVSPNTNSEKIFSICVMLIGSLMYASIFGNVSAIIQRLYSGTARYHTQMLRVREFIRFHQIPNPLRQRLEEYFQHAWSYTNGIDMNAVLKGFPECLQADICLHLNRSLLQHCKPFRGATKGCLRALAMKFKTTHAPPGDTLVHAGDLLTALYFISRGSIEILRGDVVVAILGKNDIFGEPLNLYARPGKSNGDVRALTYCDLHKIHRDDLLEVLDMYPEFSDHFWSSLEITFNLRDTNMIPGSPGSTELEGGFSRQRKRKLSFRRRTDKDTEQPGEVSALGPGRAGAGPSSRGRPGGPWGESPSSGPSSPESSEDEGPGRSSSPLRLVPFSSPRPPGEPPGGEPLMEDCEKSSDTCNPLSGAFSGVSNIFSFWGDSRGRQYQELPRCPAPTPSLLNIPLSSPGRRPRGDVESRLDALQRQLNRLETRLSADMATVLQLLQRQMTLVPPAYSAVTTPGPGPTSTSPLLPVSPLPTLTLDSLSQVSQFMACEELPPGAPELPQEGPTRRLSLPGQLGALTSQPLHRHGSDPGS

| Compound | IC50 [1] | fold less potent than Up284 ([1]; overall, cell line panel) | IC50 (HCC1395) | IC50 (PEA2; 72 h) | IC50 (hERG potassium channel) | IC50 (PEA1 cells) | cytotoxic effect after wash-out (PEA1 cells; PEA1, RA475 1 h then fresh medium 71 h vs continuous 72 h) | synergy with cisplatin for cytotoxicity (PEA1 cells; PEA1, checker board, 72 h, Synergy Finder) | forms of polyUb induced [2] | IC50 (PACS) | IC50 (HCC1395; MTT, read-out: IC50) | IC50 (PEA2; PEA2, 72 h, MTT, read-out: IC50) |
| --- | --- | --- | --- | --- | --- | --- | --- | --- | --- | --- | --- | --- |
| Cl.Cl.N#Cc1ccc(/C=C2/C(=O)/C(=C/c3ccc(C#N)cc3)C23CCN(C(=N)N)CC3)cc1 [RA475, 1,3-bis((E)-4-cyanobenzylidene)-2-oxo-7-azaspiro[3.5]nonane-7-carboximidamide dihydrochloride] | 420 nM | approximately 3 fold | 464 nM | 356 nM | 85800 nM | 406 nM | reduced its cytotoxic effect | mild synergy | induced forms of polyUb that did not run into the gel | 581 nM |  |  |
| N#Cc1ccc(/C=C2/C(=O)/C(=C/c3ccc(C#N)cc3)C23CCNCC3)cc1 [Up284, reference compound] | 120 nM |  |  |  | 4300 nM | 219 nM |  |  | induced forms of polyUb that did not run into the gel | 125 nM | 120 nM | 144 nM |
